Like-named read-outs stand apart in the source and are kept apart here.
How the values were obtained:
[1] = In vitro microsomal stability; format: in vitro ADME; conditions: Human microsomes, data from Apredica
[2] = In vitro microsomal stability; format: in vitro ADME; conditions: Mouse microsomes, data from Apredica
[3] = In vitro Caco-2 permeability; format: in vitro ADME; conditions: human
[4] = cited from earlier work
[5] = test system: cortical neurons; test: Primary cortical neuron protection assay; format: cell-based
[6] = test system: PC12 cells expressing G93A SOD1; test: Mutant SOD1-induced cytotoxicity protection assay; format: cell-based

Structure (SMILES): O=c1cc(COc2cc(Cl)cc(Cl)c2)[nH][nH]1 [Compound 1]
- NADPH-absent CLint (microsomal intrinsic clearance) [1]: 13 mL/min/kg
- NADPH-dependent CLint (microsomal intrinsic clearance) [1]: 25 mL/min/kg
- NADPH-absent CLint (microsomal intrinsic clearance) [2]: 21 mL/min/kg
- NADPH-dependent CLint (microsomal intrinsic clearance) [2]: 64 mL/min/kg
- efflux ratio [3]: 0.4
- AUC/dose ([4]; i.v. administration): 184 ng*h/mL/dose
- PK half-life ([4]; in vivo PK): 3.6 h
- AUC/dose ([4]; p.o. administration): 50 ng*h/mL/dose
- Oral bioavailability ([4]; p.o. vs i.v.): 27%

Structure (SMILES): O=c1cc(CNc2cc(Cl)cc(Cl)c2)[nH][nH]1 [Compound 2, 5-((3,5-Dichlorophenylamino)methyl)-1H-pyrazol-3(2H)-one]
- NADPH-absent CLint (microsomal intrinsic clearance) [1]: 0 mL/min/kg
- NADPH-dependent CLint (microsomal intrinsic clearance) [1]: 24 mL/min/kg
- NADPH-absent CLint (microsomal intrinsic clearance) [2]: 23 mL/min/kg
- NADPH-dependent CLint (microsomal intrinsic clearance) [2]: 78 mL/min/kg

Structure (SMILES): CN(Cc1cc(=O)[nH][nH]1)c1cc(Cl)cc(Cl)c1 [Compound 3, 5-(((3,5-Dichlorophenyl)(methyl)amino)methyl)-1H-pyrazol-3(2H)-one]
- Neuronal activity recovered ([5]; 10 μM concentration): 100%
- NADPH-absent CLint (microsomal intrinsic clearance) [1]: 0 mL/min/kg
- NADPH-dependent CLint (microsomal intrinsic clearance) [1]: 0 mL/min/kg
- NADPH-absent CLint (microsomal intrinsic clearance) [2]: 0 mL/min/kg
- NADPH-dependent CLint (microsomal intrinsic clearance) [2]: 93 mL/min/kg

Structure (SMILES): CN(CCCc1cc(=O)[nH][nH]1)c1cc(Cl)cc(Cl)c1 [Compound 24, 5-(3-((3,5-Dichlorophenyl)(methyl)amino)propyl)-1H-pyrazol-3(2H)-one]
- Activity with cortical neurons [5]: not active

Structure (SMILES): O=c1[nH][nH]c2c1CN(c1cc(Cl)cc(Cl)c1)CC2 [Compound 27, 5-(3,5-Dichlorophenyl)-4,5,6,7-tetrahydro-1H-pyrazolo[4,3-c]pyridin-3(2H)-one]
- Activity with cortical neurons [5]: not active

Structure (SMILES): CN(Cc1cc(=O)n(Cc2ccccc2)[nH]1)c1cc(Cl)cc(Cl)c1 [Compound 29, 2-Benzyl-5-(((3,5-dichlorophenyl)(methyl)amino)methyl)-1H-pyrazol-3(2H)-one]
- Activity in the PC12 assay [6]: comparable in activity to parent compound 3

Structure (SMILES): CN(Cc1cc(=O)n(C)[nH]1)c1cc(Cl)cc(Cl)c1 [Compound 30, 5-(((3,5-Dichlorophenyl)(methyl)amino)methyl)-2-methyl-1H-pyrazol-3(2H)-one]
- Activity in the PC12 assay [6]: comparable in activity to parent compound 3
